Holding throughout (assay type): cell-based
The test system of data set [1] is Huh 7.5.1 cells infected with JFH-1 virus. As to the kind of experiment: Microscopic identification of virus suppression effect (cell shape, phase contrast microscope). The following applies: 100 μM, JFH-1 infected. On the procedure:
About 200,000 Huh 7.5.1 cells were added to a 60×15 mm cell culture dish and every 100 μM of seven ginsenosides (Ro, Re, Rg1, Rg2, Rg3, Rh1, Rh2) per 60×15 mm cell culture dish each was treated. Since it was necessary for ginsenosides in powder formulation to make solutions for the experiments, 50 mM basic concentration solutions for the seven ginsenosides each were prepared and the basic solutions were refrigerated at 4° C. until they were needed.
Non-treatment group (Control), Non-treatment group and DMSO 10 μl treatment group (Control+DMSO 10 μl), JFH-1 virus treatment group (Only JFH-1), JFH-1 virus and DMSO 10 μl treatments group (JFH-1+DMSO 10 μl), JFH-1 virus and Ro 100 uM treatments group (JFH-1+Ro 100 uM), JFH-1 virus and Re 100 uM treatments group (JFH-1+Re 100 uM), JFH-1 virus and Rg1 100 uM treatments group (JFH-1+Rg1 100 uM), JFH-1 virus and Rg2 100 uM treatments group (JFH-1+Rg2 100 uM), JFH-1 virus and Rg3 100 uM treatments group (JFH-1+Rg3 100 uM), JFH-1 virus and Rh1 100 uM treatments group (JFH-1+Rh1 100 uM), JFH-1 virus and Rh2 100 uM treatments group (JFH-1+Rh2 100 uM), JFH-1 virus and Rg1 100 uM treatments group (JFH-1+Rg1 100 uM).
(§1) The experiment was carried out as follow. First, 200,000 Huh 7.5.1 cells were placed in a 60×15 mm cell culture dish. Next day, Japanese Fulminant Hepatitis-1 virus (JFH-1) stock vial which was stored in −70° C. refrigerator was taken out and thawed out in a container filled with ice-water. The culture medium was collected from the cultured 60×15 mm cell culture dish, washed with 1×PBS and collected, again. 1.5 ml of JFH-1 virus solution per 60×15 mm cell culture dish each was added. The dish was shaken to cover the surface sufficiently. The dish was laid in a 5% CO2 incubator at 37° C. for 6 hours and after that, the supernatant was draw out. 1×PBS was spread on the cell surface as slow as possible and after one time washing, cells were collected. 5 ml of cell culture media was added to control and JFH-1 treatments groups. At the last step of virus-infection, 5 ml CM and each […] of ginsenosides which was set to 50 mM concentration were added to the cell culture media. After that, the cell culture media was laid in a 5% CO2 incubator at 37° C. After 72 hours, the following steps were carried out.
As described in the above Example 3, each 100 μM of seven ginsenosides (Ro, Re, Rg1, Rg2, Rg3, Rh1, Rh2) was treated to Huh 7.5.1 cells. After 24 hours and 72 hours, the shapes of Huh 7.5.1 cells were observed using a phase contrast microscope (ECLIPSE TE300, Nicon) of 400× magnifications.

Data set [2] has as its system JFH-1 virus infected Huh 7.5.1 cell. As to the kind of experiment: MTT assay, cytotoxicity of ginsenosides on liver cancer cell line. As to conditions: 10, 25, 50 and 100 μL concentration (so in the source), 72 hours. How it is done: MTT assay was conducted to identify cytotoxicity of ginsenosides.
Specifically, the cells (Huh7.5.1) were seeded at the rate of 1×10^4 cells (in 100 μL)/well in 96 well plates, and incubated in 5% CO2 incubator for less than 24 hours. And after the samples were washed with 1×PBS once and treated with the rate of 50 ul JFH-1 virus/well, and replaced in the 5%, CO2 incubator for six hours. After taking out the cell samples from the incubator, the samples were washed with 1×PBS once and replaced in the culturing media comprising 10, 25, 50 and 100 μL concentration of the above stated seven (7) ginsenosides in Example 3, respectively. After the cells were incubated in 5% CO2 incubator for 72 hours, 20 μl of assay reagent, EZ Cytox, was seeded into each well with the care of no bubble producing. And then, the treated cells were incubated in 5% CO2 incubator for 2.5 hours, followed by examining absorbance at 420 nm with Microplate Reader (Molecular Devices, Minn.). DMSO was the solvent used when treating with ginsenoside, and both the control group and the cells infected with JFH-1 group were also treated with the solvent DMSO.

In a further data set the test system is cleaved PARP. As to the kind of experiment: Western blotting against cleaved PARP (apoptosis) in JFH-1 infected Huh 7.5.1 cells. On the procedure:
as §1
As described in the above Example 3, the Huh 7.5.1 cells were treated with each 100 μM of seven ginsenosides (Ro, Re, Rg1, Rg2, Rg3, Rh1, Rh2). After 72 hours, a western blotting analysis was carried out for analyzing virus suppression effect against HCV CORE and cleaved PARP. […]

Experimental findings from patent US8865659B2, “Compositions for prevention or treatment of Hepatitis C virus containing ginsenoside Rg3 as an active ingredient” (priority 2012, dated 2014) are described below.

As for `CC(C)=CCC[C@](C)(O)[C@H]1CC[C@]2(C)[C@@H]1[C@H](O)C[C@@H]1[C@@]3(C)CC[C@H](O[C@@H]4O[C@H](CO)[C@@H](O)[C@H](O)[C@H]4O[C@@H]4O[C@H](CO)[C@@H](O)[C@H](O)[C@H]4O)C(C)(C)[C@@H]3CC[C@]12C` [ginsenoside Rg3], the “shapes of Huh 7.5.1 cells” value in data set [1] (24 hours after treatment) and in data set [1] (72 hours after treatment) was “fuses cells” throughout. Besides, in data set [2], the “cytotoxicity (MTT assay)” value is given as “no cytotoxicity”. The “apoptosis of the cells (cleaved PARP), dose dependence” value in the data set on cleaved PARP (10 μM, 25 μM, 50 μM and 100 μM) is reported as “dose-dependent manner”. In addition, the “cleaved PARP” value in the data set with cleaved PARP (100 μM, 72 hours) is listed as “decreased”.
